Laboratory results reported in US20250304596A1, “PYRAZINE DERIVATIVES AND USES THEREOF” (FOGHORN THERAPEUTICS INC., priority 2022, published 2025).

Experiments:
[1] = molecular target: T1, HiBit-BRM fusion protein (Homo sapiens, UniProt P51531); assay: HiBiT-BRM cell-based degradation assay (Nano-Glo HiBiT Lytic Detection, 24 h); settings: stable HeLa cell line expressing HiBiT-BRM; for DC50: read-out: BRM HiBit Degradation IC50
T1 construct: expressed in transfected cells
Procedure, shortened: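 A stable HeLa line expressing HiBiT-BRM was treated for 24 h with compound in a 10-point, 3-fold series (30 μM final top dose). Remaining HiBiT-BRM was read by lytic LgBiT complementation luminescence. % degradation was normalised to DMSO (high control) and 2 μM reference BRM/BRG1 degrader (low control).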

[2] = molecular target: T2, HiBit-BRG1 fusion protein (Homo sapiens, UniProt P51532); assay: HiBiT-BRG1 cell-based degradation assay (Nano-Glo HiBiT Lytic Detection, 24 h); settings: stable HeLa cell line expressing HiBit-BRG1 and LgBit; for Dmax: read-out: BRG1 HiBit Degradation Maximum (%); for DC50: read-out: BRMG1 HiBit Degradation IC50
T2 construct: expressed in transfected cells
Procedure, shortened: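 HeLa cells stably expressing HiBit-BRG1 and LgBit, treated 24 h with 3-fold dilutions (10 points, duplicate, 30 μM final top dose). Luminescence read after Nano-Glo HiBiT lytic reagent; % degradation scaled between DMSO (high) and 2 μM reference BRM/BRG1 degrader (low control).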

T2 sequence (P51532 whole entry, the tested form may be a part): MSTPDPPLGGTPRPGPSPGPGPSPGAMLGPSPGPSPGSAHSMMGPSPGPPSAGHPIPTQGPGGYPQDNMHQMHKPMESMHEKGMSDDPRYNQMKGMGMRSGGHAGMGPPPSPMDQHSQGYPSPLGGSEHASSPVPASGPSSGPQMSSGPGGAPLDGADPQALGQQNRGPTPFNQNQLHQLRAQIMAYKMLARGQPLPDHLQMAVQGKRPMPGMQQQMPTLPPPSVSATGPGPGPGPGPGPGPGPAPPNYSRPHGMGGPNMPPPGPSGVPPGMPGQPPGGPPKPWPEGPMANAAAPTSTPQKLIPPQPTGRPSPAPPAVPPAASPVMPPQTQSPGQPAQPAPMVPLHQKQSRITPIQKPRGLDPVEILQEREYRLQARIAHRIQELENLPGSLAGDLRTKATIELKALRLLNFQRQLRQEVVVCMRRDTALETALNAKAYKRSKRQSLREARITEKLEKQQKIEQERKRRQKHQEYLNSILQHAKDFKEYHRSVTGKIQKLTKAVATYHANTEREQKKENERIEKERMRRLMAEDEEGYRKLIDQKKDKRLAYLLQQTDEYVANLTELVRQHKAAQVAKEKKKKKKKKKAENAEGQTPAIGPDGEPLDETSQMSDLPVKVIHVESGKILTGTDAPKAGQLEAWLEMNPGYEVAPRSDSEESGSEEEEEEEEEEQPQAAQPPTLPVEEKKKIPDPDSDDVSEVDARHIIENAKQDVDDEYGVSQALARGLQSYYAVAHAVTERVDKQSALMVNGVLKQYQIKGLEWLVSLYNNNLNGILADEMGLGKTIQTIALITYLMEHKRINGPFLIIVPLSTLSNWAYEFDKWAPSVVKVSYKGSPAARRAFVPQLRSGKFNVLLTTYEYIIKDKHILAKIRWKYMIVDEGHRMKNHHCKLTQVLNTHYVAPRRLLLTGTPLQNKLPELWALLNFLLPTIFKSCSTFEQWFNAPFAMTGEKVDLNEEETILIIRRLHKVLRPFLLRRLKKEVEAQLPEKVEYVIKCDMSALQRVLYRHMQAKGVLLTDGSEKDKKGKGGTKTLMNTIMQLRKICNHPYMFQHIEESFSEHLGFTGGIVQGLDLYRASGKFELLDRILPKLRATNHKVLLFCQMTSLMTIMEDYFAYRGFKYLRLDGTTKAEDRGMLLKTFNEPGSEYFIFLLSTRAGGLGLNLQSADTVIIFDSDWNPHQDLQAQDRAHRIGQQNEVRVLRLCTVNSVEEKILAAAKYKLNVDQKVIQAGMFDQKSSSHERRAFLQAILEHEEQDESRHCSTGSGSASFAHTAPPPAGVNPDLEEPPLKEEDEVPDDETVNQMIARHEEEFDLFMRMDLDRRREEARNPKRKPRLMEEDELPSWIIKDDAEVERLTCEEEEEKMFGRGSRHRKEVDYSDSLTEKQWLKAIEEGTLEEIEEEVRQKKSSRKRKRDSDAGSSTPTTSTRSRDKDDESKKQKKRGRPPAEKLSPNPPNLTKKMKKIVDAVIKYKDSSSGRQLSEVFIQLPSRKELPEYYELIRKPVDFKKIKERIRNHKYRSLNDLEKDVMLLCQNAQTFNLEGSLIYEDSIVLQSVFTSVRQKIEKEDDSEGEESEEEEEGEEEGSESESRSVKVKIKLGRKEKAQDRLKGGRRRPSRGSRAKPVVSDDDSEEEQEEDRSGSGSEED
T1 sequence (P51531 whole entry, the tested form may be a part): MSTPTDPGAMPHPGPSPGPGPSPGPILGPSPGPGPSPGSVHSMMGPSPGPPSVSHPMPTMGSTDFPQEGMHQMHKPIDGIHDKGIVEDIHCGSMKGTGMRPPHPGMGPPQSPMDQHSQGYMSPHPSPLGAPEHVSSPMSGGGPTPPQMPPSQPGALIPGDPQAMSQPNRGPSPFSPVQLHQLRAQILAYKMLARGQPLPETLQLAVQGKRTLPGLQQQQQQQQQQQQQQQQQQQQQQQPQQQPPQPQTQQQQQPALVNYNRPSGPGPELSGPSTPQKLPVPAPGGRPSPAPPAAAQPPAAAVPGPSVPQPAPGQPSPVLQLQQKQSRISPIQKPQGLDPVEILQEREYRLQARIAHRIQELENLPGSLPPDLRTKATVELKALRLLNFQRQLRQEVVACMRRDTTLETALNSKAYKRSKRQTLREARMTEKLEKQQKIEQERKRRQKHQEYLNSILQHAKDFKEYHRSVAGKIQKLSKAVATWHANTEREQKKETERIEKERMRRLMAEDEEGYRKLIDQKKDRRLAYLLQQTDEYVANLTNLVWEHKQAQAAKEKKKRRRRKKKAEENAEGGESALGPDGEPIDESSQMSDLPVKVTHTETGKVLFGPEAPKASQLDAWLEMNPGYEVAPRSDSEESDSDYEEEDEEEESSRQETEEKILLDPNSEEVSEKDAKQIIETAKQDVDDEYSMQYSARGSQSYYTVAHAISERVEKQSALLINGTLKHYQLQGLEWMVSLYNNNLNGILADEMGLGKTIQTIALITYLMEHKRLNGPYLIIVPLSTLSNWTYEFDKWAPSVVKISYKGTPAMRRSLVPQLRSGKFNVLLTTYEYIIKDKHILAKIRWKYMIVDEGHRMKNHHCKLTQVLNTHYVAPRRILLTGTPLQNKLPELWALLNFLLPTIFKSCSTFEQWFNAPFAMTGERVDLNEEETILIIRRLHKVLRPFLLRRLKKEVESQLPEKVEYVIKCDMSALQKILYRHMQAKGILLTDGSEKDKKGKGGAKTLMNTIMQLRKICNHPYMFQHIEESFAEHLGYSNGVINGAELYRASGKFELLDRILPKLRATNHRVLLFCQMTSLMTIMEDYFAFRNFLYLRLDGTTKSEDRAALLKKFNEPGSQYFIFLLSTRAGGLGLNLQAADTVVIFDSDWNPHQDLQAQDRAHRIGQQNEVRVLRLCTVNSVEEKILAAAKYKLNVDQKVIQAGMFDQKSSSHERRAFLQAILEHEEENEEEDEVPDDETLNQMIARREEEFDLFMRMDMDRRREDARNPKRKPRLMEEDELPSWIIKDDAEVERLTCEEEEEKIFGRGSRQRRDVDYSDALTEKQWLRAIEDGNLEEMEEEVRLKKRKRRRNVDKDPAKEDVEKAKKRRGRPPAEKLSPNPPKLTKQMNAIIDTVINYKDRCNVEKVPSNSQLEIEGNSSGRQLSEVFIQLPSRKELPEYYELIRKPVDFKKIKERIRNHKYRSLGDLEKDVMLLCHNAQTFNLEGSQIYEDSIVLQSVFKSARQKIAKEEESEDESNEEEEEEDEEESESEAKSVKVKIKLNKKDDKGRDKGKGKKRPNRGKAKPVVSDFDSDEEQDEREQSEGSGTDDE

DC50 [1] [nM] | Dmax [2] [%] | DC50 [2] [nM] | Compound | BRM HiBit Degradation Maximum (%) [1]
< 10 | > 75 | < 10 | Cc1ncsc1-c1ccc([C@H](C)NC(=O)[C@@H]2C[C@@H](O)CN2C(=O)[C@@H](c2cc(N3CC4(CC(c5cc6nnc(-c7ccccc7O)cc6s5)C4)C3)no2)C(C)C)cc1 [Compound 69, (2S,4R)-4-hydroxy-1-((R)-2-(3-(6-(3-(2-hydroxyphenyl)thieno[3,2-c]pyridazin-6-yl)-2-azaspiro[3.3]heptan-2-yl)isoxazol-5-yl)-3-methylbutanoyl)-N-((S)-1-(4-(4-methylthiazol-5-yl)phenyl)ethyl)pyrrolidine-2-carboxamide] | A (“A” indicates maximum degradation ≥75%)
< 10 | > 75 | > 10 | Cc1ncsc1-c1ccc([C@H](C)NC(=O)[C@@H]2C[C@@H](O)CN2C(=O)[C@@H](c2cc(N3CC4(CCC(c5cc6cc(-c7ccccc7O)nnc6s5)CC4)C3)no2)C(C)C)cc1 [Compound 89, (2S,4R)-4-hydroxy-1-((R)-2-(3-(7-(3-(2-hydroxyphenyl)thieno[2,3-c]pyridazin-6-yl)-2-azaspiro[3.5]nonan-2-yl)isoxazol-5-yl)-3-methylbutanoyl)-N-((S)-1-(4-(4-methylthiazol-5-yl)phenyl)ethyl)pyrrolidine-2-carboxamide] | A (“A” indicates maximum degradation ≥75%)
< 10 | < 50 | > 1000 | Cc1ncsc1-c1ccc([C@H](C)NC(=O)[C@@H]2C[C@@H](O)CN2C(=O)[C@@H](c2cc(-c3cnc(N4CC(c5sc6nnc(-c7ccccc7O)cc6c5C)C4)nc3)no2)C(C)C)cc1 (single isomer, unassigned) [Compound 63] | A (“A” indicates maximum degradation ≥75%)
> 10 | < 50 | > 1000 | Cc1cc(-c2cc([C@H](C(=O)N3C[C@H](O)C[C@H]3C(=O)N[C@@H](C)c3ccc(-c4scnc4C)cc3)C(C)C)on2)ccc1N1CCC(c2sc3nnc(-c4ccccc4O)cc3c2C)CC1 (single isomer, unassigned) [Compound 3] | A (“A” indicates maximum degradation ≥75%)
< 10 | < 50 |  | Cc1ncsc1-c1ccc([C@H](C)NC(=O)[C@@H]2C[C@@H](O)CN2C(=O)[C@@H](c2cc(N3CC[C@@H](c4cc5nnc(-c6ccccc6O)cc5s4)C3)no2)C(C)C)cc1 [Compound 72, (2S,4R)-4-hydroxy-1-((R)-2-(3-((R)-3-(3-(2-hydroxyphenyl)thieno[3,2-c]pyridazin-6-yl)pyrrolidin-1-yl)isoxazol-5-yl)-3-methylbutanoyl)-N-((S)-1-(4-(4-methylthiazol-5-yl)phenyl)ethyl)pyrrolidine-2-carboxamide] | A (“A” indicates maximum degradation ≥75%)
< 10 | > 50 | > 10 | Cc1ncsc1-c1ccc([C@H](C)NC(=O)[C@@H]2C[C@@H](O)CN2C(=O)[C@@H](c2cc(N3CC[C@@H](c4sc5nnc(-c6ccccc6O)cc5c4C)C3)no2)C(C)C)cc1 [Compound 74, (2S,4R)-4-hydroxy-1-((R)-2-(3-((R)-3-(3-(2-hydroxyphenyl)-5-methylthieno[2,3-c]pyridazin-6-yl)pyrrolidin-1-yl)isoxazol-5-yl)-3-methylbutanoyl)-N-((S)-1-(4-(4-methylthiazol-5-yl)phenyl)ethyl)pyrrolidine-2-carboxamide] | A (“A” indicates maximum degradation ≥75%)
